Test results as given in paper PMC12169614, “Exploring Long Arm Amide-Linked Side Chains in the Design of Antifungal Azole Inhibitors of Sterol 14α-Demethylase (CYP51)” (Journal of Medicinal Chemistry, 2025).

Assays:
Y525 OE CaMDR1a = assay: MIC80 determination, strain Y525; type: cell-based, S. cerevisiae; settings: for MIC80: Saccharomyces cerevisiae, 48 h, pH 6.8; for MIC: read-out: MIC (nM) C. albicans model Y525
Procedure: (§1) Cells were seeded at an OD600 nm of 0.005 (1.5 × 10^4 CFU), and the plates were incubated at 30 °C with shaking at 200 rpm for 48 h for S. cerevisiae strains and 24 h for C. albicans . Cell growth was assessed by measuring the OD600 nm using a Synergy 2 multimode plate reader (BioTek Instruments, VT, USA). Each MIC80 was determined using triplicate measurements for pools of 4 clones of each strain in three separate experiments.

Y2374 OE CgCYP51 = assay: MIC80 determination, strain Y2374; type: cell-based, S. cerevisiae; settings: Saccharomyces cerevisiae; for MIC: read-out: MIC (nM) C. glabrate model Y2374
Procedure: as §1

Y2459 OE CaCYP51 CaCpr = assay: MIC80 determination, strain Y2459; type: cell-based, S. cerevisiae; settings: for MIC80: Saccharomyces cerevisiae, 48 h, pH 6.8; for MIC: read-out: MIC (nM) C. albicans model Y2459
Procedure: as §1

Y2513 OE ScCYP51 Y140H = assay: MIC80 determination, strain Y2513; type: cell-based, S. cerevisiae; settings: Saccharomyces cerevisiae; for MIC80: 48 h, pH 6.8; for MIC: read-out: MIC (nM) S. cerevisiae Y2513
Procedure: as §1

Y570 OE CaCDR1B = assay: MIC80 determination, strain Y570; type: cell-based, S. cerevisiae; settings: for MIC: Candida albicans, read-out: MIC (nM) C. albicans model Y570; for MIC80: Saccharomyces cerevisiae, 48 h, pH 6.8
Procedure: as §1

Y2301 OE ScCYP51 Y140F = assay: MIC80 determination, strain Y2301; type: cell-based, S. cerevisiae; settings: Saccharomyces cerevisiae; for MIC80: 48 h, pH 6.8; for MIC: read-out: MIC (nM) S. cerevisiae Y2301
Procedure: as §1

Y71 SC5314 = assay: MIC80 determination, C. albicans clinical isolate Y71 SC5314; type: cell-based; settings: Candida albicans; for MIC: SC5314, supplement csv; for MIC80: C. albicans clinical isolate Y71 SC5314, pH 7, 24 h
Procedure: as §1

Y611 FHB3 = assay: MIC80 determination, C. albicans clinical isolate Y611 FHB3; type: cell-based; settings: Candida albicans, 24 h, pH 7
Procedure: as §1

Y2300 OE ScCYP51 = assay: MIC80 determination, strain Y2300; type: cell-based, S. cerevisiae; settings: Saccharomyces cerevisiae; for MIC80: 48 h, pH 6.8; for MIC: read-out: MIC (nM) S. cerevisiae Y2300
Procedure: as §1

Y2411 Endog. ScCYP51 = assay: MIC80 determination, strain Y2411; type: cell-based, S. cerevisiae; settings: Saccharomyces cerevisiae; for MIC80: strain Y2411 Endog. ScCYP51, SD pH 6.8, 30 °C, 48 h; for MIC: supplement csv, read-out: MIC (nM) S. cerevisiae Y2411
Procedure: as §1

Y1 = assay: MIC80 determination, C. albicans clinical isolate Y1; type: cell-based; settings: Candida albicans, pH 7, 24 h
Procedure: as §1

[1] = system: Y525 MFS efflux pump CaMDR1a overexpressed; assay: Agarose (disk) diffusion assay, strain Y525; type: cell-based, S. cerevisiae; settings: 10 nmol/disk, 30 °C, 48 h
Excerpt: (§2) Final compounds were screened as racemic mixtures using agarose diffusion assays to visualize their inhibitory activity against a panel of recombinant S. cerevisiae strains i.e., S. cerevisiae strains expressing control levels of wild-type CYP51 (ScCYP51), overexpressed wild-type ScCYP51, overexpressed azole-resistant ScCYP51 Y140F/H mutations and overexpressed C. albicans efflux pumps MDR1a or CDR1B (Figure and Table S1).
(§3) The susceptibilities of S. cerevisiae and Candida species strains to azole compounds were observed as zones of growth inhibition in agarose diffusion assays. The disk diffusion assays were carried out as described by Keniya et al. Complete supplement mixture (CSM) agarose (0.6% agarose [wt/vol]; 20 mL of synthetic defined medium (SD); pH 6.8–7) was solidified in a rectangular Petri dish which was overlaid with CSM agarose (0.6% [wt/vol]; 5 mL; pH 6.8–7) seeded with yeast cells at an optical density (OD600) of 0.008 (118,000 cells per 1 mL of overlay). Azole compounds (10 nmol/disk) were applied to sterile BBL paper disks (Becton Dickinson Co., Sparks, MD) and placed on solidified overlays. Cell growth was assessed after incubation at 30 °C for 48 h.

Y433 OE CgCDR1 = assay: MIC80 determination, strain Y433; type: cell-based, S. cerevisiae; settings: Saccharomyces cerevisiae
Procedure: as §1

Y610 FHB1 = assay: MIC80 determination, C. albicans clinical isolate Y610 FHB1; type: cell-based; settings: Candida albicans; C. albicans clinical isolate Y610 FHB1 (weakly expresses CaCDR1); pH 7, 24 h
Procedure: as §1

[2] = system: Y2300 ScCYP51 overexpressed; assay: Agarose (disk) diffusion assay, strain Y2300; type: cell-based, S. cerevisiae; settings: 10 nmol/disk, 30 °C, 48 h
Excerpt: as §2, §3

Y2651 OE CYP51 F5 RaCPR = assay: MIC80 determination, strain Y2651; type: cell-based, S. cerevisiae; settings: Saccharomyces cerevisiae
Procedure: as §1

[3] = system: Y2301 ScCYP51 Y140F mutant; assay: Agarose (disk) diffusion assay, strain Y2301; type: cell-based, S. cerevisiae; settings: 10 nmol/disk, 30 °C, 48 h
Excerpt: as §2, §3

[4] = system: Y2747 OE AfCYP51B AfCPR AfERG6; assay: MIC80 determination, strain Y2747; type: cell-based, S. cerevisiae; settings: for MIC: Aspergillus fumigatus, read-out: MIC (nM) A. fumigatus model Y2747; for MIC80: Saccharomyces cerevisiae
Procedure: as §1

2711 CnCYP51 OE CnCPR = assay: MIC80 determination, strain 2711; type: cell-based, S. cerevisiae; settings: for MIC80: Saccharomyces cerevisiae; for MIC: read-out: MIC (nM) C. neoformans model Y2711
Procedure: as §1

[5] = system: Y2746 OE AfCYP51A AfCPR AfERG6; assay: MIC80 determination, strain Y2746; type: cell-based, S. cerevisiae; settings: Saccharomyces cerevisiae
Procedure: as §1

Y2649 OE CYP51 F1 RaCPR = assay: MIC80 determination, strain Y2649; type: cell-based, S. cerevisiae; settings: for MIC: Rhizopus arrhizus, read-out: MIC (nM) R. arrhizus model Y2649; for MIC80: Saccharomyces cerevisiae
Procedure: as §1

[6] = system: Y2513 ScCYP51 Y140H mutant; assay: Agarose (disk) diffusion assay, strain Y2513; type: cell-based, S. cerevisiae; settings: 10 nmol/disk, 30 °C, 48 h
Excerpt: as §2, §3

Y2721 OE CpCYP51 = assay: MIC80 determination, strain Y2721; type: cell-based, S. cerevisiae; settings: for MIC80: Saccharomyces cerevisiae; for MIC: read-out: MIC (nM) C. parapsilosis model Y2721
Procedure: as §1

Y2716 OE CpCYP51 Y132F = assay: MIC80 determination, strain Y2716; type: cell-based, S. cerevisiae; settings: for increase in resistance owing to the CpCYP51 Y132F mutation: MIC80 Y2716 versus Y2721; for MIC80: Saccharomyces cerevisiae
Procedure: as §1

Compound	MIC80 (Y525 OE CaMDR1a) [µM]	MIC (Y525 OE CaMDR1a) [nM]	MIC80 (Y2374 OE CgCYP51) [µM]	MIC (Y2374 OE CgCYP51) [nM]	MIC80 (Y2459 OE CaCYP51 CaCpr) [µM]	MIC (Y2459 OE CaCYP51 CaCpr) [nM]	MIC80 (Y2513 OE ScCYP51 Y140H) [µM]	MIC (Y2513 OE ScCYP51 Y140H) [nM]	MIC (Y570 OE CaCDR1B) [nM]	MIC80 (Y570 OE CaCDR1B) [µM]	MIC80 (Y2301 OE ScCYP51 Y140F) [µM]	MIC (Y2301 OE ScCYP51 Y140F) [nM]	MIC (Y71 SC5314) [nM]	MIC80 (Y71 SC5314) [µM]	MIC80 (Y611 FHB3) [µM]	MIC80 (Y2300 OE ScCYP51) [µM]	MIC (Y2300 OE ScCYP51) [nM]	MIC80 (Y2411 Endog. ScCYP51) [µM]	MIC (Y2411 Endog. ScCYP51) [nM]	MIC80 (Y1) [µM]	other results
O=C(NCC(O)(Cn1cncn1)c1ccc(F)cc1F)c1ccc(NC(=O)c2ccc(Cl)cc2)cc1 (stereo not drawn) [Compound 26, 4-Chloro-N-(4-((2-(2,4-difluorophenyl)-2-hydroxy-3-(1H-1,2,4-triazol-1-yl)propyl)carbamoyl)phenyl)benzamide]	> 1	> 1000	0.205	205	0.118 ± 0.003	118 ± 3	0.087 ± 0.004	87 ± 4	> 40000	> 40	0.123 ± 0.038	123 ± 38	208 ± 83	0.208 ± 0.083	19.5	0.182 ± 0.03	182 ± 30	0.039 ± 0.014	39 ± 14	0.285	zone of growth inhibition (inhibitory activity in words) [1]: less effective; MIC80 (Y433 OE CgCDR1): > 40 µM; MIC80 (Y610 FHB1): 0.95 µM
O=C(Nc1ccc(CNC(=O)C(Cn2cncn2)c2ccc(F)cc2F)cc1)c1cnccn1 (stereo not drawn) [Compound 48, N-(4-((2-(2,4-Difluorophenyl)-3-(1H-1,2,4-triazol-1-yl)propanamido)methyl)phenyl)pyrazine-2-carboxamide]	–	–	–	–	–	–	–	–	–	–	–	–	–	–	–	–	–	–	–	–	zone of growth inhibition (inhibitory activity in words) [2]: lower inhibitory activity
O=C(NCC(O)(Cn1cncn1)c1ccc(F)cc1F)c1cccc(-c2ccc(C(F)(F)F)cc2)c1 (stereo not drawn) [Compound 23, N-(2-(2,4-Difluorophenyl)-2-hydroxy-3-(1H-1,2,4-triazol-1-yl)propyl)-4’-(trifluoromethyl)-[1,1’-biphenyl]-3-carboxamide]	0.44	440	0.076 ± 0.012	76 ± 12	0.06 ± 0.011	60 ± 11	0.805 ± 0.121	805 ± 121	8100	8.1	0.411 ± 0.071	411 ± 71	100	0.1	4.25	0.069 ± 0.039	69 ± 39	0.037 ± 0.011	37 ± 11	0.12	MIC80 (Y2651 OE CYP51 F5 RaCPR): 2.57 ± 0.938 µM; zone of growth inhibition (inhibitory activity in words) [3]: significantly greater resistance; MIC [4]: 150 ± 26 nM; MIC80 [4]: 0.15 ± 0.026 µM; MIC80 (2711 CnCYP51 OE CnCPR): 0.02 µM; MIC (2711 CnCYP51 OE CnCPR): 20 nM; MIC80 [5]: 3.52 ± 0.209 µM; MIC (Y2649 OE CYP51 F1 RaCPR): 32 ± 19 nM; MIC80 (Y2649 OE CYP51 F1 RaCPR): 0.032 ± 0.019 µM; zone of growth inhibition (inhibitory activity in words) [6]: significantly greater resistance; MIC80 (Y2721 OE CpCYP51): 0.055 ± 0.003 µM; MIC (Y2721 OE CpCYP51): 55 ± 3 nM; increase in resistance owing to the CpCYP51 Y132F mutation (Y2716 OE CpCYP51 Y132F): > 19 fold; MIC80 (Y2716 OE CpCYP51 Y132F): 1.91 ± 0.02 µM; MIC80 (Y433 OE CgCDR1): 13.1 µM; MIC80 (Y610 FHB1): 0.4 ± 0.113 µM
O=C(NCC(O)(Cn1cncn1)c1ccc(F)cc1F)c1cccc(-c2ccc(OC(F)(F)F)cc2)c1 (stereo not drawn) [Compound 24, N-(2-(2,4-Difluorophenyl)-2-hydroxy-3-(1H-1,2,4-triazol-1-yl)propyl)-4’-(trifluoromethoxy)-[1,1’-biphenyl]-3-carboxamide]	0.43	430	0.168	168	0.116 ± 0.061	116 ± 61	0.719 ± 0.001	719 ± 1	17000	17	0.419 ± 0.083	419 ± 83	85	0.085	3.4	0.163 ± 0.061	163 ± 61	0.03	30	0.12	MIC80 (Y2651 OE CYP51 F5 RaCPR): 1.4 µM; zone of growth inhibition (inhibitory activity in words) [3]: significantly greater resistance; MIC [4]: 50 nM; MIC80 [4]: 0.05 µM; MIC80 (2711 CnCYP51 OE CnCPR): 0.002 µM; MIC (2711 CnCYP51 OE CnCPR): 2 nM; MIC80 [5]: 2.7 µM; MIC (Y2649 OE CYP51 F1 RaCPR): 16 nM; MIC80 (Y2649 OE CYP51 F1 RaCPR): 0.016 µM; zone of growth inhibition (inhibitory activity in words) [6]: significantly greater resistance; MIC80 (Y2721 OE CpCYP51): 0.094 µM; MIC (Y2721 OE CpCYP51): 94 nM; increase in resistance owing to the CpCYP51 Y132F mutation (Y2716 OE CpCYP51 Y132F): > 19 fold; MIC80 (Y2716 OE CpCYP51 Y132F): 1.75 µM; MIC80 (Y433 OE CgCDR1): 11.8 µM; MIC80 (Y610 FHB1): 0.37 ± 0.042 µM
